Legend:
Assay type in all cases: in vitro ADME, canine
P-gp = assay: Bidirectional permeability measurements in MDCK-MDR1 monolayers; conditions: dog, MDCK-MDR1, with verapamil 100 μmol/L, verapamil 100 μmol/L
Method: (§1) MDCK-MDR1 cells at passage 17 were cultured in DMEM supplemented with 10% FBS, 1% glutamine, 100 U/mL penicillin/streptomycin, 1% NEAA, and 1 mmol/L sodium pyruvate. The cells were incubated overnight at 37°C with 5% CO2 and a relative humidity of 90%. Once the cells reached approximately 80% confluence, they were treated with a 0.25% trypsin/EDTA solution to dissociate the cells. Subsequently, the cells were seeded at a density of 5 × 10^5 cells/cm^2 in Millicell-96 well plates (Millipore, Burlington, USA). Prior to conducting the experiments, the integrity of the cell monolayer was confirmed by measuring transepithelial electrical resistance (TEER) using a Millicell ERS® meter (Millipore, Burlington, USA). A TEER value greater than 400 Ω cm^2 was required to ensure the formation and preservation of tight junctions.
(§2) Cell monolayers were preincubated with HBSS for 15 min at 37°C. To measure the A→B (apical side to basolateral side of monolayer) transporter, 400 μL of ammoxetine solution was added to the A-side (donor chamber), and 1,200 μL of HBSS solution was added to the B-side (receiver chamber). The B→A transporter was evaluated by adding 1,200 μL of ammoxetine solution to the B-side (donor chamber) and 400 μL of HBSS solution to the A-side (receiver chamber). At 0 h, 50 μL of the solution was taken from the donor chamber, and aliquots of 50 μL were taken from the receiver chamber at 15, 30, 45, 60, 90, and 120-min time intervals. The collected aliquots were immediately replaced with equal volumes of fresh blank HBSS. Ammoxetine transport was studied at three concentrations: 0.2, 1, and 5 μg/mL, with each concentration evaluated in triplicate. […] Ammoxetine samples collected from the receiver chambers at different time points were mixed with 150 μL of acetonitrile/methanol (1:1, v/v) solution containing 50 ng/mL L-phencynonate (IS). The mixtures were then vortexed for 1 min and centrifuged for 10 min at 13,800×g. The supernatants were analyzed using an LC-MS-MS method.
(§3) The apparent permeability coefficient ( Papp , cm/s) values for ammoxetine were determined using Equation 1: Papp=dQ/dt/A×C0 (1)
(§4) Here, dQ/dt represents the amount of drug transported to the receiver chamber within a specific time period, A is the surface area of the cell monolayer (=0.33 cm^2), and C0 is the initial concentration of ammoxetine.
(§5) In general, the involvement of a P-gp-mediated efflux mechanism was indicated if the efflux ratio ( ER ) value exceeded 1.5 ([Langthaler et al., 2024]). […]

MDCK-MDR1 cells = assay: as above; conditions: from ER and verapamil effect
Method: as §1, §2, §3, §4, §5

[1] = as above; conditions: dog, MDCK-MDR1, 2 h
Method: as §1, §2, §3, §4, §5

P-gp (MDR1) = assay: as above; conditions: dog, MDCK-MDR1, read-out: ER [Papp(B→A)⁄Papp(A→B)]
Method: as §1, §2, §3, §4, §5

- Papp A→B at 120 min, 0.2 μg/mL (P-gp; 0.2 μg/mL): 272 ± 64.3 nm/s
- Papp A→B at 120 min, 1 μg/mL (P-gp; 1 μg/mL): 288 ± 18.9 nm/s
- Papp A→B at 120 min, 5 μg/mL (P-gp; 5 μg/mL): 299 ± 32.9 nm/s
- P-gp substrate status (MDCK-MDR1 cells): likely a substrate of P-gp
- Papp A→B at 2 h, 0.2 μg/mL ([1]; 0.2 μg/mL): 158 ± 28.3 nm/s
- Papp B→A at 2 h, 0.2 μg/mL ([1]; 0.2 μg/mL): 265 ± 53 nm/s
- Papp A→B at 2 h, 1 μg/mL ([1]; 1 μg/mL): 66.1 ± 5.55 nm/s
- Papp B→A at 2 h, 1 μg/mL ([1]; 1 μg/mL): 115 ± 29.3 nm/s
- Papp A→B at 2 h, 5 μg/mL ([1]; 5 μg/mL): 132 ± 12.6 nm/s
- Papp B→A at 2 h, 5 μg/mL ([1]; 5 μg/mL): 252 ± 34.9 nm/s
- efflux ratio at 120 min, 0.2 μg/mL (P-gp (MDR1); 0.2 μg/mL): 1.67
- efflux ratio at 120 min, 1 μg/mL (P-gp (MDR1); 1 μg/mL): 1.74
- efflux ratio at 120 min, 5 μg/mL (P-gp (MDR1); 5 μg/mL): 1.9
Compound: CNCC[C@H](Oc1cccc2c1OCO2)c1cccs1 [ammoxetine]
